Laboratory results as given in patent US10034895B2 (priority 2017, dated 2018).

Columns and labels:
[1] = test system: Human retinoblastoma cells (ATCC C-33A); test: Trypan blue viability study of human retinoblastoma cells (dose response); conditions: conclusion of Experiment 3
Description: (§3) Cells for culture were obtained from the Cell Culture Facility at Duke University. […] All cells were cultured at 37° C. and 5% CO2 in a HERA cell incubator (Kendro Laboratory Products, L.P., Newtown, Conn.). Media for cells was Minimum Essential Media with Earl's salts and L-Glutamine (Gibco, Life Technologies) with 10% fetal bovine serum and non-essential amino acids and sodium pyruvate. Antibiotics for experiment #2 were penicillin/streptomycin and for experiments #3-4 were penicillin/streptomycin/amphotericin B. All drug testing was performed in Costar 6 Well Culture Cluster plates (Corning, Corning, N.Y.). The trypan blue concentration was 0.4%.
(§4) Human retinoblastoma cells (ATCC C-33A) were cultured in six well plates. […] The cells were incubated for 12 hours after which time they were stained with 1 ml trypan blue for two minutes. The media and trypan blue were aspirated from each well, and the cells were examined with an inverted microscope for photography.

[2] = test system: Human retinoblastoma cells; test: as above; conditions: 12 hours
Description: as §3, §4

[3] = Stereocomplex reaction of L-lactic acid + D-lactic acid dimer (tetrazolium L-lactic acid test strips); conditions: room temperature, two minutes
Description: (§1) Cells for culture were obtained from the Cell Culture Facility at Duke University. PLLA was microwave synthesized from L-lactic acid as previously reported. Lactic acid concentration was measured by tetrazolium indicator color test strips (Accuvin, LLC, Napa, Calif.) from the reaction of L-lactic acid and […] in the presence of lactate dehydrogenase. All cells were cultured at 37° C. and 5% CO2 in a HERA cell incubator (Kendro Laboratory Products, L.P., Newtown, Conn.). Media for cells was Minimum Essential Media with Earl's salts and L-Glutamine (Gibco, Life Technologies) with 10% fetal bovine serum and non-essential amino acids and sodium pyruvate. Antibiotics for experiment #2 were penicillin/streptomycin and for experiments #3-4 were penicillin/streptomycin/amphotericin B. All drug testing was performed in Costar 6 Well Culture Cluster plates (Corning, Corning, N.Y.). The trypan blue concentration was 0.4%.
The reactions were carried out at room temperature and allowed to incubate for two minutes after which 20 microliters were applied to L-lactic acid test strips, and the results were read after two minutes.

[4] = test system: Normal human fibroblast cells (ATCC CCL-171); test: Trypan blue viability study of normal human fibroblast cells; conditions: for cytotoxicity of D-lactic acid dimer compared with L-lactic acid: cultured normal fibroblasts, FIGS. 13-16; for Cell characteristic: cells non-viable (trypan blue): normal fibroblasts, 12 hours
Description: as §1
(§2) Normal human fibroblast cells (ATCC CCL-171) were subcultured onto six well plates. […] The cells were incubated for 12 hours after which time they were stained with 1 ml trypan blue for two minutes. The media and trypan blue were aspirated from each well, and the cells were then placed under an inverted microscope for photography.

HeLa cells (ATCC CCL-2) = test: Trypan blue viability study of cultured HeLa cells
Description: as §1
as §2, with “HeLa” for “Normal human fibroblast”, “CCL-2)” for “CCL-171)”, “cultured on” for “subcultured onto”, “hours,” for “hours”

SMILES	effective cytotoxic dose / concentration on human retinoblastoma cells [1]	Trypan blue staining for non-viable cells ([2]; 6.25 mg in 1 ml media)	Trypan blue staining for non-viable cells ([2]; 25 mg in 1 ml media)	Tetrazolium indicator (L-lactic acid remaining) ([3]; 0.5 mg dimer in 40 microliters of 10 mM L-lactic acid)	Tetrazolium indicator (L-lactic acid remaining) ([3]; 1.0 mg dimer in 40 microliters of 10 mM L-lactic acid)	Tetrazolium indicator (L-lactic acid remaining) ([3]; 5.0 mg dimer in 40 microliters of 10 mM L-lactic acid)	Tetrazolium indicator (L-lactic acid remaining) ([3]; 7.0 mg dimer in 40 microliters of 10 mM L-lactic acid)	cytotoxicity of D-lactic acid dimer compared with L-lactic acid [4]	Cell characteristic: cells non-viable (trypan blue) ([4]; 1.50 mg in 1 ml media)	Cell characteristic: cells non-viable (trypan blue) ([4]; 12.5 mg in 1 ml media)	Cell characteristic: cells non-viable (trypan blue) ([4]; 25 mg in 1 ml media)	concentration at which cytotoxic when applied to HeLa cells (HeLa cells (ATCC CCL-2); HeLa, conclusion of Experiment 2)	cytotoxicity compared to PLLA (HeLa cells (ATCC CCL-2); cultured HeLa cells, FIGS. 2 & 3)	concentration at which selectively cytotoxic when locally applied to cancer cells (HeLa cells (ATCC CCL-2); summary over cancer cells (HeLa and retinoblastoma))
C[C@@H](O)C(=O)O[C@H](C)C(=O)O [D-lactic acid dimer]	greater than 6.25 mg/ml	Thirty	Fifty	80 mg/L	no color change	no color change	no color change	less cytotoxic on a molar basis than L-lactic acid	0% cells non-viable	100% cells non-viable	100% cells non-viable	≥ 5000 µg/mL	more cytotoxic than a mixture of PLLA oligomers	5000 to 6250 µg/mL
C[C@H](O)C(=O)O [L-lactic acid, reference compound]	–	–	–	–	–	–	–	more cytotoxic than D-lactic acid dimer	–	–	–	–	–	–
